# Test results published in US9023831B2, “Methods and compositions of inhibiting complement and cellular activation with Dextran Sulfate” (Novelmed Therapeutics, Inc., priority 2007, dated 2015).
# Experiments:
# [1] = tested on: platelets (CD62P staining); assay: Platelet activation (CD62P flow cytometry) after tubing loop; assay type: cell-based, human; details: Aspirin 100 μg/ml added to NM3014 prior to tubing loop rotation
# Description: It was expected that platelet activation would also be inhibited. […] The inhibition of platelet activation was measured using flow cytometry following CD62P staining of activated platelets.
# It was expected that platelet activation will also be inhibited. […] The inhibition of platelet activation was measured using flow cytometry following CD62P staining of activated platelets.
# While platelets bear C3a receptors, it is not clear how platelets were being activated. In an effort to downregulate platelet activation, we performed an experiment in which Dextran Sulfate was utilized in combination with aspirin. […] These surprising results present Dextran Sulfate as a lead complement inhibitory drug that down regulates both complement and cellular activation in heparinized whole human blood. Shown in FIGS. 10d and 10e are results from this study.
# For CD62P labeling of platelets, 100 μl of diluted blood collected from the circuits were immediately incubated with 20 μl of PE-anti-CD62P antibody (Becton Dickinson) for 20 minutes at room temperature in a polypropylene tube, Then the mixture was treated with FACS Lysing Solution as described above. The microcentrifuge tubes were centrifuged at 12000. g for 5 minutes. The platelets were washed in PBS/BSA 01%, fixed in 1% paraformaldehyde and then analyzed as described above. For double labeling to concomitantly identify the platelet population, 5 μl of FITC-anti-CD61 antibody were added for incubation together with PE-anti-CD62P antibody.
# For flow cytometry measurement, the PMN (containing mainly neutrophils) and platelet populations were identified by live gating based on forward- versus side-scatter parameters and specific staining with FITC-anti-CD15 antibody and FITC-anti-CD61 antibody, respectively. The background staining was gated using isotype-matched labeled antibodies. The intensity of expression of CD11b and CD62P was represented by mean fluorescence intensity (MFI).
# arthritic Lewis rats = assay: Joint inflammation and bone destruction in Rat-AIA (CFA-induced arthritis); assay type: in vivo
# Description: Lewis male rats were used to examine the effect of Dextran Sulfate combination with aggrastat (molecular weight 40,000 and 5,000) for the treatment of arthritis. Arthritis was induced in adult male Lewis rats (200-225 gm) by an intradermal injection of complete Freund's adjuvant (CFA) at the base of the tail on the dorsal side. The CFA (100 mg dried and heat killed Mycobacterium butyricum (Difco, Detroit, Mich.) emulsified in 10 ml sterile mineral oil) was prepared by grinding the bacteria powder with a mortar and pestle until the bacterial cell wall turned from a light beige to an eggshell white powder. The mineral oil was then slowly mixed into the bacterial cell wall using the mortar and pestle. All animals in each experiment were challenged with the same preparation of adjuvant and nearly 100% of the animals developed arthritis. Dextran Sulfate was obtained from Sigma Aldrich Corp and Aggrastat was purchased from the pharmacy. Dextran Sulfate was dissolved in aggrastat. The drug treatment started on day 10 post-immunization, the time of disease onset, and continued until sacrifice. The dose of Dextran Sulfate was 20 & 10 mg/Kg/per day per 150-200 g rat. The inflammatory response was assesed by the measurement of paw volume. Paw volume appears to be very consistent and gave slow increasing arthritis over time. Paw volumes were measured every day until sacrifice using Plethysmometer (IITC). After the sacrifice/euthanasia, limbs were removed and processed for;
# a) histological evaluations: Only three animals were used per group. Sections were stained with Eosin and hematoxylin to identify various regions within the inflamed limb. Untreated controls have intact cartilage layer and the bone (Score 0) and clear synovium without pannus. Arthritic controls had no defined cartilage bone, and have pannus layer and significant inflammation (Score 5). Enbrel was used as positive control. […] We gave a score of 2.
# b) Paw Swelling: Each paw was measured for water displacement using plethysmometer. Paw volume was measured every day.
# Continuous treatment of Dextran Sulfate therapies from disease onset affected paw swelling in arthritic rats. All adjuvant-challenged rats developed AA between days 10-12. […] While inflammation was decreased in these treatment groups, we observed a greater effect for these drugs in prevention of bone and cartilage destruction.
compound,measurement,setting,value
"CC(=O)Oc1ccccc1C(=O)O [Aspirin, reference compound]",inhibition of NM3014 induced platelet activation,[1],inhibition of platelet activation much below the control levels
same,inhibition of NM3014 induced platelet activation,[1]; listed as aspirin,downregulated activation of platelets much below control levels
"Dextran Sulfate [Dextran Sulfate 5,000]","paw swelling (paw volume, plethysmometer)","arthritic Lewis rats; with Aggrastat, compared to untreated controls",decreased the inflammation
Enbrel [reference compound],histological score,"arthritic Lewis rats; Score 0 untreated controls, Score 5 arthritic controls",2
